Assay results: US8653260B2, “Hydroxymethyl pyrrolidines as beta 3 adrenergic receptor agonists” (Merck Sharp & Dohme Corp., priority 2008, dated 2014)
Where two headings read alike, the source gives them in different places.

Key:
[1] = molecular target: T1, human β3 adrenergic receptor (Homo sapiens, UniProt P13945); assay: Functional assay: cAMP production (LANCE) in CHO cells expressing β3 adrenergic receptor; assay type: cell-based
T1 construct: expressed in transfected cells; host or cells: CHO cells, stably transfected
T1 sequence (P13945 whole entry): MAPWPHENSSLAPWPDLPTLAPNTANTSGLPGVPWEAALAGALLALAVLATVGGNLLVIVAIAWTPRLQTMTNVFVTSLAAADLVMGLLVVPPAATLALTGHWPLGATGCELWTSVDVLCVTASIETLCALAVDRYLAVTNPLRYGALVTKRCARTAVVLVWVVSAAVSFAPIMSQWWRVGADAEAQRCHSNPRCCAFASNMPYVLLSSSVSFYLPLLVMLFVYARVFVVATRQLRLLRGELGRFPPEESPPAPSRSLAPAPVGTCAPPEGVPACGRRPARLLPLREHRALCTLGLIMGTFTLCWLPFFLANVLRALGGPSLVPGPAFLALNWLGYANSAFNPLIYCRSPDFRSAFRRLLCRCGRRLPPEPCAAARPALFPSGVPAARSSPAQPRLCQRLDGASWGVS
Procedure: Chinese hamster ovary (CHO) cells, stably transfected with the cloned β-adrenergic receptor (β1, β2 or β3) are harvested after 3 days of subculturing. Harvesting of cells is done with Enzyme-free Dissociation Media (Specialty Media). Cells are then counted and resuspended in assay buffer (Hank's Balanced salt solution supplemented with 5 mM HEPES, 0.1% BSA) containing a phosphodiesterase inhibitor (IBMX, 0.6 mM). The reaction is initiated by mixing 6,000 cells in 6 μL with 6 μL Alexa Fluor labeled cAMP antibody (LANCE™ kit) which is then added to an assay well containing 12 μL of compound (diluted in assay buffer to 2× final concentration). The reaction proceeds for 30 min at room temperature and is terminated by the addition of 24 μL detection buffer (LANCE™ kit). The assay plate is then incubated for 1 h at room temperature and time-resolved fluorescence measured on a Perkin Elmer Envision reader or equivalent. The unknown cAMP level is determined by comparing fluorescence levels to a cAMP standard curve.
The non-selective, full agonist β-adrenergic ligand isoproterenol is used at all three receptors to determine maximal stimulation. […] Data are analyzed using Microsoft Excel and Graphpad Prism or an internally developed data analysis software package.

rats = conditions: intravenous administration, cited from earlier work
[2] = cAMP production, CHO cells, given as a range, read-out: human β3 functional activity

Molecule `O=C(Nc1ccc(C[C@@H]2CC[C@H]([C@H](O)c3ccccc3)N2)cc1)[C@@H]1CCc2cccc(=O)n21` (single isomer, unassigned) [Example 101] has an EC50 [1, 2] of 1 to 10 nM.

`O=C(Nc1ccc(C[C@@H]2CC[C@H]([C@H](O)c3ccccc3)N2)cc1)C1CCc2cccc(=O)n21` (single isomer, unassigned) [Example 102] showed an EC50 [1, 2] of under 1 nM.

`CC(C(=O)Nc1ccc(C[C@@H]2CC[C@H]([C@H](O)c3ccccc3)N2)cc1)n1ccccc1=O` (single isomer, unassigned) [Example 203] showed an EC50 ([1]; Table 5, read-out: Human β3 Functional) of 1 to 10 nM.

In the case of `Nc1nc2c(s1)CCC2C(=O)Nc1ccc(CC2CCC(C(O)c3ccc(F)cc3)N2)cc1` (single isomer, unassigned) [Example 308], the EC50 ([1]; human β3 functional activity, given as ranges, read-out: Human β3 Functional) is reported as 1 to 10 nM.

In the case of `C[C@H](Cc1ccc2c(c1)OC(C(=O)[O-])(C(=O)[O-])O2)NC[C@H](O)c1cccc(Cl)c1.[Na+].[Na+]` [CL316243], the bladder capacity (rats; cystometric studies) is listed as “increases bladder capacity” and the bladder pressure (rats) is listed as “reduces bladder pressure”.

Molecule `Cc1nc(CC(=O)Nc2ccc(C[C@@H]3CC[C@H]([C@H](O)c4ccccc4)N3)cc2)c(C)s1` [Example 10] has an EC50 ([1]; Table 4, text b832: human β3 functional activity, read-out: Human β3 Binding) of 1 to 10 nM.
